# In patent US6323203A, “Composition and method for treating diabetes” (Beyer; Camille F., priority 2000, dated 2001):
# Legend:
# [1] = Single-blind, three-phase crossover study of single oral doses: blood analyses of metabolic, hormonal and electrolyte parameters in 8 normal male subjects; assay type: in vivo, human; conditions: for Free fatty acids, mean / Angiotensin I, mean / Renin, mean / C-peptide, mean / Potassium, mean / Uric acid, mean / Aldosterone, mean / Insulin, mean / Urea, mean / VLDL Cholesterol, mean / Norepinephrine, mean / HDL Cholesterol, mean / Glucose, mean / Triglycerides, mean / LDL Cholesterol, mean / Total cholesterol, mean / Fibrinogen, mean: 8 normal subjects; for Free fatty acids, mean: 0 h: PZG 0.47, PZA 0.51; for Angiotensin I, mean: 0 h: PZG 0.84, PZA 0.66; for Renin, mean: 0 h: PZG 1.0, PZA 1.5; for C-peptide, mean: 0 h: PZG 1.1, PZA 1.2; for Potassium, mean: 0 h: PZG 4.2, PZA 4.0; for Uric acid, mean: 0 h: PZG 6.0, PZA 5.6; for Aldosterone, mean: 0 h: PZG 8.6, PZA 13.6; for Insulin, mean: 0 h: PZG 8.8, PZA 5.4; for Urea, mean: 0 h: PZG 17, PZA 17; for VLDL Cholesterol, mean: 0 h: PZG 20, PZA 17; for Norepinephrine, mean: 0 h: PZG 37, PZA 75; for HDL Cholesterol, mean: 0 h: PZG 41, PZA 46; for Glucose, mean: 0 h: PZG 87, PZA 84; for Triglycerides, mean: 0 h: PZG 101, PZA 86; for LDL Cholesterol, mean: 0 h: PZG 107, PZA 104; for Total cholesterol, mean: 0 h: PZG 168, PZA 167; for Fibrinogen, mean: 0 h: PZG 266, PZA 293
# Method: A three-phase study, where single oral doses of placebo, followed in one week by 900 mg of pyrazinoylguanidine (PZG), followed in three weeks by 300 mg of pyrazinoic acid (PZA), involving normal male subjects, was carried out to compare and contrast metabolic effects of single doses of PZG and PZA. A purpose of the study was to determine whether the metalbolic effects observed after 3 and also 21 days of PZG administration in patients with renal disease or with diabetes also occurred after a single oral dose. […]
# (§1) Eight male nonsmoking subjects aged 24-32 participated. They were normal by history, physical exam and routine laboratory analysis of blood and urine.
# (§2) This was a single-blind, three-phase crossover study beginning after a 10-hour fast at 8 a.m., designated time 0 (control), when the first venipuncture occurred. In phase I, three capsules of lactose were given orally, followed by venipunctures 2 and 4 h later. In phase II, 1 week later, after a control blood specimen drawn at 8 a.m., PZG (900 mg) was given orally and blood specimens taken 2 and 4 h thereafter. In phase III, 3 weeks later, after a control blood specimen drawn at 8 a.m., PZA (300 mg) was given orally and blood specimens taken 2 and 4 h later.
# (§3) Each phase consisted of taking three capsules, each containing 300 mg. In phase I, all three capsules were of lactose; in phase II, all three were PZG; and in phase III, two capsules were lactose and one PZA. All capsules appeared indistinguishable and were given to each subject who swallowed them with water in the presence of an investigator.
# (§4) Once obtained, blood specimens were immediately spun. Refrigerated serum or plasma was analyzed within 24 h for glucose, insulin, electrolytes, blood urea nitrogen, creatinine, liver function tests, triglycerides, total cholesterol, high-density lipoprotein (HDL) cholesterol, low-density lipoprotein (LDL) cholesterol, very-low-density lipoprotein (VLDL) cholesterol, free fatty acids, and fibrinogen.
# Repeated measures of analysis of variance were used to compare each subject's placebo, PZG and PZA phase. Two-tailed Student t-tests were performed between groups. All results are reported as means ±SD. Statistical significance was considered when p<0.05. The results are illustrated in Tables 1-4.
# [2] = Serum concentration of PZG or PZA after single oral dose in the crossover study; assay type: in vivo; conditions: human, 900 mg, 8 normal subjects
# Method: as §1, §2, §3, §4
# [3] = system: cutaneous vasomotor reaction of blush area; assay: Cutaneous vasomotor response (and tolerability) after a single oral dose in 8 male volunteers; assay type: in vivo, human; conditions: single oral dose, 900 mg PZG
# Method: as §1, §2
# Comparisons of mean serum or plasma concentrations ±SD during placebo, PZG and PZA phases are presented in Table 1 for glucose, insulin, C-peptide, free fatty acids and norepinephrine. Comparisons of mean serum or plasma concentrations ±SD during these three phases are presented in Table 2 for triglycerides, VLDL, LDL, HDL, total cholesterol, fibrinogen and serum PZG and PZA concentrations. Note the close agreement of serum PZG and PZA concentrations at 2 h and also at 4 h after their administration. Table 3 compares mean serum or plasma concentrations ±SD of renin, angiotensin I, adlosterone, potassium, urea and uric acid during the three phases of the study. […] In an earlier pilot experiment to determine serum PZA concentrations following different PZA doses, a first subject ([…]) after a single oral dose of 300 mg PZA developed unexpectedly a typical cutaneous vasomotor reaction of their blush area which included flushed, warm skin of face, neck and shoulders with a mild rash for about 90 min. […] They described the reaction variously as warm redness or flushed head and neck, rash and itching (Table 4). These reactions, which were graded from 6 (most severe) to 0 (not observed), lasted from 30 min in 3 subjects to 4 h in 1 subject. […] No significant correlation occurred between score of reaction (effect+duration) and PZA peak blood concentration among the subjects (r=0.281) (Table 4).
# ^1 Score = warm + redness (flush) + rash + itching + duration. Duration
# as 0.5 h, 1, 2, 4 h (reaction and duration as noted).
# [4] = 2 h after single oral dose (PZG 900 mg, PZA 300 mg)
# [5] = 4 h after single oral dose (PZG 900 mg, PZA 300 mg)
smiles,measurement,setting,value
"NC(N)=NC(=O)c1cnccn1 [PZG, pyrazinoylguanidine]","Free fatty acids, mean",[1]; [4],0.20 meq/l
same,"Angiotensin I, mean",[1]; [4],0.86 ng/ml per h
same,"Renin, mean",[1]; [4],1.2 ng/ml per h
same,"C-peptide, mean",[1]; [4],0.9 ng/mL
same,"Potassium, mean",[1]; [4],4.5 meg/l
same,"Uric acid, mean",[1]; [4],6.0 mg/dL
same,"Aldosterone, mean",[1]; [4],10.0 ng/dL
same,"Insulin, mean",[1]; [4],6.2 μlU/ml
same,"Urea, mean",[1]; [4],17 mg/dL
same,"VLDL Cholesterol, mean",[1]; [4],18 mg/dL
same,"Norepinephrine, mean",[1]; [4],53 pg/mL
same,"HDL Cholesterol, mean",[1]; [4],42 mg/dL
same,"Glucose, mean",[1]; [4],84 mg/dL
same,"Triglycerides, mean",[1]; [4],91 mg/dL
same,"LDL Cholesterol, mean",[1]; [4],107 mg/dL
same,"Total cholesterol, mean",[1]; [4],167 mg/dL
same,"Fibrinogen, mean",[1]; [4],273 mg/dL
same,"Free fatty acids, mean",[1]; [5],0.19 meq/l
same,"Angiotensin I, mean",[1]; [5],1.0 ng/ml per h
same,"Renin, mean",[1]; [5],1.8 ng/ml per h
same,"C-peptide, mean",[1]; [5],0.6 ng/mL
same,"Potassium, mean",[1]; [5],4.3 meg/l
same,"Uric acid, mean",[1]; [5],6.2 mg/dL
same,"Aldosterone, mean",[1]; [5],9.5 ng/dL
same,"Insulin, mean",[1]; [5],3.4 μlU/ml
same,"Urea, mean",[1]; [5],16 mg/dL
same,"VLDL Cholesterol, mean",[1]; [5],16 mg/dL
same,"Norepinephrine, mean",[1]; [5],113 pg/mL
same,"HDL Cholesterol, mean",[1]; [5],42 mg/dL
same,"Glucose, mean",[1]; [5],80 mg/dL
same,"Triglycerides, mean",[1]; [5],79 mg/dL
same,"LDL Cholesterol, mean",[1]; [5],113 mg/dL
same,"Total cholesterol, mean",[1]; [5],171 mg/dL
same,"Fibrinogen, mean",[1]; [5],273 mg/dL
same,effect on potassium blood concentrations,"[1]; single oral dose, within 4 h",not changed
same,concentration at 2 h,"[2]; 2 h after single oral dose (PZG 900 mg, PZA 300 mg), read-out: Serum concentration of PZG or PZA, mean",5100 ng/mL
same,concentration at 4 h,[2]; [5],3000 ng/mL
same,adverse reactions,[3],no adverse reaction
same,tolerability,[3],well tolerated
